Experimental data reported in BigSolDB 2.1.

Compound `O=C(O)c1cc2ccccc2[nH]1` has a solubility (mole fraction) (in 1,4-dioxane, 286.35 K) of 0.00276, a solubility (mole fraction) (in 1,4-dioxane, 291.25 K) of 0.00343 and a solubility (mole fraction) (in 1,4-dioxane, 297.05 K) of 0.00427. The solubility (mole fraction) (in 1,4-dioxane, 301.95 K) was 0.00476, the solubility (mole fraction) (in 1,4-dioxane, 306.95 K) was 0.0052 and the solubility (mole fraction) (in 1,4-dioxane, 312.15 K) was 0.00592. For the same compound, the solubility (mole fraction) (in 1,4-dioxane, 317.25 K) was 0.00636, the solubility (mole fraction) (in 1,4-dioxane, 321.65 K) was 0.00689 and the solubility (mole fraction) (in 1,4-dioxane, 326.55 K) was 0.00728. For the same compound, the solubility (mole fraction) (in 1,4-dioxane, 331.95 K) was 0.00791, the solubility (mole fraction) (in 1,4-dioxane, 336.65 K) was 0.00866 and the solubility (mole fraction) (in dichloromethane, 283.15 K) was 0.000684. For the same compound, the solubility (mole fraction) (in dichloromethane, 287.15 K) was 0.000724, the solubility (mole fraction) (in dichloromethane, 292.75 K) was 0.000873 and the solubility (mole fraction) (in dichloromethane, 295.65 K) was 0.00104. The solubility (mole fraction) (in dichloromethane, 299.05 K) was 0.00119, the solubility (mole fraction) (in dichloromethane, 302.65 K) was 0.00134 and the solubility (mole fraction) (in dichloromethane, 307.25 K) was 0.00168. The solubility (mole fraction) (in dichloromethane, 313.15 K) was 0.00224, the solubility (mole fraction) (in ethanol, 278.15 K) was 0.0569 and the solubility (mole fraction) (in ethanol, 283.15 K) was 0.062. It also gave a solubility (mole fraction) (in ethanol, 287.95 K) of 0.0666, a solubility (mole fraction) (in ethanol, 292.75 K) of 0.0701 and a solubility (mole fraction) (in ethanol, 297.95 K) of 0.078. The solubility (mole fraction) (in ethanol, 303.05 K) was 0.0816, the solubility (mole fraction) (in ethanol, 308.35 K) was 0.0881 and the solubility (mole fraction) (in ethanol, 313.25 K) was 0.0974. It also gave a solubility (mole fraction) (in ethanol, 318.65 K) of 0.102, a solubility (mole fraction) (in ethanol, 324.95 K) of 0.116 and a solubility (mole fraction) (in ethanol, 329.85 K) of 0.12. For the same compound, the solubility (mole fraction) (in ethanol, 336.25 K) was 0.135, the solubility (mole fraction) (in ethanol, 342.75 K) was 0.148 and the solubility (mole fraction) (in ethanol, 348.25 K) was 0.154. The solubility (mole fraction) (in ethanol, 353.15 K) was 0.165, the solubility (mole fraction) (in ethyl acetate, 284.05 K) was 0.0433 and the solubility (mole fraction) (in ethyl acetate, 290.45 K) was 0.06. For the same compound, the solubility (mole fraction) (in ethyl acetate, 294.65 K) was 0.0735, the solubility (mole fraction) (in ethyl acetate, 299.55 K) was 0.0865 and the solubility (mole fraction) (in ethyl acetate, 304.65 K) was 0.1. The solubility (mole fraction) (in ethyl acetate, 309.35 K) was 0.108, the solubility (mole fraction) (in ethyl acetate, 313.95 K) was 0.116 and the solubility (mole fraction) (in ethyl acetate, 318.65 K) was 0.121. For the same compound, the solubility (mole fraction) (in ethyl acetate, 324.35 K) was 0.128, the solubility (mole fraction) (in ethyl acetate, 328.75 K) was 0.134 and the solubility (mole fraction) (in ethyl acetate, 333.65 K) was 0.14. For the same compound, the solubility (mole fraction) (in isopropanol, 278.35 K) was 0.0412, the solubility (mole fraction) (in isopropanol, 285.15 K) was 0.0525 and the solubility (mole fraction) (in isopropanol, 291.05 K) was 0.0606. It also gave a solubility (mole fraction) (in isopropanol, 298.15 K) of 0.0701, a solubility (mole fraction) (in isopropanol, 305.55 K) of 0.0855 and a solubility (mole fraction) (in isopropanol, 310.15 K) of 0.0949. The solubility (mole fraction) (in isopropanol, 315.75 K) was 0.108, the solubility (mole fraction) (in isopropanol, 321.35 K) was 0.119 and the solubility (mole fraction) (in isopropanol, 328.65 K) was 0.131. The solubility (mole fraction) (in isopropanol, 333.35 K) was 0.149, the solubility (mole fraction) (in isopropanol, 338.75 K) was 0.161 and the solubility (mole fraction) (in isopropanol, 342.25 K) was 0.171. The solubility (mole fraction) (in isopropanol, 348.15 K) was 0.191, the solubility (mole fraction) (in isopropanol, 353.25 K) was 0.201 and the solubility (mole fraction) (in isopropanol, 358.15 K) was 0.219. For the same compound, the solubility (mole fraction) (in methanol, 278.15 K) was 0.0679, the solubility (mole fraction) (in methanol, 283.35 K) was 0.0695 and the solubility (mole fraction) (in methanol, 288.95 K) was 0.0723. The solubility (mole fraction) (in methanol, 293.25 K) was 0.0752, the solubility (mole fraction) (in methanol, 298.15 K) was 0.0856 and the solubility (mole fraction) (in methanol, 303.35 K) was 0.0925. For the same compound, the solubility (mole fraction) (in methanol, 307.85 K) was 0.102, the solubility (mole fraction) (in methanol, 312.95 K) was 0.118 and the solubility (mole fraction) (in methanol, 317.75 K) was 0.135. For the same compound, the solubility (mole fraction) (in methanol, 323.15 K) was 0.159, the solubility (mole fraction) (in methanol, 328.25 K) was 0.189 and the solubility (mole fraction) (in methanol, 333.15 K) was 0.23. It also gave a solubility (mole fraction) (in n-butanol, 278.15 K) of 0.0478, a solubility (mole fraction) (in n-butanol, 285.35 K) of 0.0538 and a solubility (mole fraction) (in n-butanol, 291.05 K) of 0.0605. For the same compound, the solubility (mole fraction) (in n-butanol, 298.55 K) was 0.0687, the solubility (mole fraction) (in n-butanol, 305.25 K) was 0.0758 and the solubility (mole fraction) (in n-butanol, 310.75 K) was 0.0832. It also gave a solubility (mole fraction) (in n-butanol, 315.15 K) of 0.0909, a solubility (mole fraction) (in n-butanol, 321.75 K) of 0.101 and a solubility (mole fraction) (in n-butanol, 328.35 K) of 0.112. It also gave a solubility (mole fraction) (in n-butanol, 333.95 K) of 0.125, a solubility (mole fraction) (in n-butanol, 338.15 K) of 0.14 and a solubility (mole fraction) (in n-butanol, 342.45 K) of 0.143. For the same compound, the solubility (mole fraction) (in n-butanol, 348.25 K) was 0.16, the solubility (mole fraction) (in n-butanol, 353.45 K) was 0.174 and the solubility (mole fraction) (in n-butanol, 358.15 K) was 0.19. It also gave a solubility (mole fraction) (in n-propanol, 278.25 K) of 0.0437, a solubility (mole fraction) (in n-propanol, 285.45 K) of 0.0521 and a solubility (mole fraction) (in n-propanol, 291.35 K) of 0.0588. The solubility (mole fraction) (in n-propanol, 298.15 K) was 0.068, the solubility (mole fraction) (in n-propanol, 305.75 K) was 0.0801 and the solubility (mole fraction) (in n-propanol, 311.25 K) was 0.088. It also gave a solubility (mole fraction) (in n-propanol, 317.75 K) of 0.0993, a solubility (mole fraction) (in n-propanol, 322.15 K) of 0.105 and a solubility (mole fraction) (in n-propanol, 328.05 K) of 0.115. For the same compound, the solubility (mole fraction) (in n-propanol, 333.55 K) was 0.128, the solubility (mole fraction) (in n-propanol, 339.15 K) was 0.138 and the solubility (mole fraction) (in n-propanol, 344.85 K) was 0.151. The solubility (mole fraction) (in n-propanol, 349.75 K) was 0.162, the solubility (mole fraction) (in n-propanol, 353.15 K) was 0.176 and the solubility (mole fraction) (in n-propanol, 358.15 K) was 0.18. It also gave a solubility (mole fraction) (in toluene, 287.85 K) of 0.00052, a solubility (mole fraction) (in toluene, 293.65 K) of 0.000645 and a solubility (mole fraction) (in toluene, 297.95 K) of 0.000722. It also gave a solubility (mole fraction) (in toluene, 302.85 K) of 0.000786, a solubility (mole fraction) (in toluene, 307.05 K) of 0.000898 and a solubility (mole fraction) (in toluene, 311.55 K) of 0.000989. For the same compound, the solubility (mole fraction) (in toluene, 313.55 K) was 0.00104, the solubility (mole fraction) (in toluene, 317.45 K) was 0.00113 and the solubility (mole fraction) (in toluene, 325.15 K) was 0.00155. The solubility (mole fraction) (in toluene, 337.85 K) was 0.00295, the solubility (mole fraction) (in toluene, 342.55 K) was 0.00379 and the solubility (mole fraction) (in toluene, 348.25 K) was 0.00427. It also gave a solubility (mole fraction) (in toluene, 360.15 K) of 0.00642, a solubility (mole fraction) (in water, 293.15 K) of 6.79e-05 and a solubility (mole fraction) (in water, 298.15 K) of 6.88e-05. For the same compound, the solubility (mole fraction) (in water, 303.15 K) was 7.03e-05, the solubility (mole fraction) (in water, 308.05 K) was 7.17e-05 and the solubility (mole fraction) (in water, 312.65 K) was 7.88e-05. It also gave a solubility (mole fraction) (in water, 318.15 K) of 9.36e-05, a solubility (mole fraction) (in water, 323.15 K) of 0.000115 and a solubility (mole fraction) (in water, 328.15 K) of 0.000149. The solubility (mole fraction) (in water, 333.15 K) was 0.0002, the solubility (mole fraction) (in water, 338.15 K) was 0.00028 and the solubility (mole fraction) (in water, 343.15 K) was 0.000409. It also gave a solubility (mole fraction) (in water, 348.15 K) of 0.000616, a solubility (mole fraction) (in water, 353.15 K) of 0.000962 and a solubility (mole fraction) (in water, 358.15 K) of 0.00155.
